Assay results from patent publication US10770169B2, “Method of providing a treatment to a subject based on a dynamic pathway map” (THE REGENTS OF THE UNIVERSITY OF CALIFORNIA, priority 2010, dated 2020).
Where two headings read alike, the source gives them in different places.

Test system: panel of 55 breast cancer cell lines
Test: Cell growth inhibition assay (Cell Titer Glo, 72 h, 9 doses; GI50, TGI, LC50)
Type: cell-based, human
Conditions: Homo sapiens

## C[C@]12O[C@H](C[C@]1(O)CO)n1c3ccccc3c3c4c(c5c6ccccc6n2c5c31)CNC4=O [Lestaurtinib]
600MPE cell line, censored GI50 values
  GI50: 1700 nM
AU565, AU565 cell line, censored GI50 values
  GI50: 851 nM
AU565, cell line AU565
  GI50: 851 nM
BT-20, BT20 cell line, censored GI50 values
  GI50: 3240 nM
BT-20, cell line BT20
  GI50: 3240 nM
BT-474, BT474 cell line, censored GI50 values
  GI50: 245 nM
BT-474, cell line BT474
  GI50: 245 nM
BT-483, BT483 cell line, censored GI50 values
  GI50: 741 nM
BT-483, cell line BT483
  GI50: 741 nM
CAMA-1, CAMA1 cell line, censored GI50 values
  GI50: 2240 nM
CAMA-1, cell line CAMA1
  GI50: 2240 nM
HCC38, cell line HCC38
  GI50: 61.7 nM
HCC70, cell line HCC70
  GI50: 182 nM
HCC1143, HCC1143 cell line, censored GI50 values
  GI50: 331 nM
HCC1143, cell line HCC1143
  GI50: 331 nM
HCC1187, HCC1187 cell line, censored GI50 values
  GI50: 832 nM
HCC1187, cell line HCC1187
  GI50: 832 nM
HCC1419, HCC1419 cell line, censored GI50 values
  GI50: 1150 nM
HCC1419, cell line HCC1419
  GI50: 1150 nM
HCC1428, HCC1428 cell line, censored GI50 values
  GI50: 537 nM
HCC1428, cell line HCC1428
  GI50: 537 nM
HCC1500, HCC1500 cell line, censored GI50 values
  GI50: 158 nM
HCC1500, cell line HCC1500
  GI50: 158 nM
HCC1806, HCC1806 cell line, censored GI50 values
  GI50: 162 nM
HCC1806, cell line HCC1806
  GI50: 162 nM
HCC1937, HCC1937 cell line, censored GI50 values
  GI50: 617 nM
HCC1937, cell line HCC1937
  GI50: 617 nM
HCC1954, HCC1954 cell line, censored GI50 values
  GI50: 4900 nM
HCC1954, cell line HCC1954
  GI50: 4900 nM
MCF7, cell line MCF7
  GI50: 1410 nM
MDA-MB-361, cell line MDAMB361
  GI50: 525 nM
MDA-MB-436, cell line MDAMB436
  GI50: 1380 nM
MDA-MB-453, cell line MDAMB453
  GI50: 661 nM
MDA-MB-468, cell line MDAMB468
  GI50: 407 nM
SK-BR-3, cell line SKBR3
  GI50: 1020 nM
SUM52PE, cell line SUM52PE
  GI50: 138 nM
SUM149PT, cell line SUM149PT
  GI50: 91.2 nM
SUM185PE, cell line SUM185PE
  GI50: 63.1 nM
SUM225CWN, cell line SUM225CWN
  GI50: 1000 nM
SUM-159-PT, cell line SUM159PT
  GI50: 288 nM
T47D, cell line T47D
  GI50: 5620 nM
UACC-812, cell line UACC812
  GI50: 1050 nM
ZR-75-1, cell line ZR751
  GI50: 1780 nM
ZR-75B, cell line ZR75B
  GI50: 457 nM
Cell line 600MPE
  GI50: 1700 nM
Cell line HCC2185
  GI50: 3240 nM
Cell line HCC3153
  GI50: 7760 nM
Cell line MDAMB134V
  GI50: 363 nM
Cell line MDAMB175V
  GI50: 813 nM
Cell line SUM1315MO
  GI50: 37.2 nM

## NS(=O)(=O)OC[C@@H]1C[C@@H](n2ccc3c(N[C@H]4CCc5ccccc54)ncnc32)C[C@@H]1O [MLN4924]
AU565, cell line AU565, censored GI50 values, read-out: GI50 (converted)
  GI50: 182 nM
AU565, cell line AU565, read-out: GI50 (converted)
  GI50: 182 nM
BT-20, cell line BT20, censored GI50 values, read-out: GI50 (converted)
  GI50: 2750 nM
BT-20, cell line BT20, read-out: GI50 (converted)
  GI50: 2750 nM
BT-474, cell line BT474, censored GI50 values, read-out: GI50 (converted)
  GI50: 575 nM
BT-474, cell line BT474, read-out: GI50 (converted)
  GI50: 575 nM
BT-483, cell line BT483, censored GI50 values, read-out: GI50 (converted)
  GI50: 33100 nM
BT-483, cell line BT483, read-out: GI50 (converted)
  GI50: 33100 nM
CAMA-1, cell line CAMA1, censored GI50 values, read-out: GI50 (converted)
  GI50: 51.3 nM
CAMA-1, cell line CAMA1, read-out: GI50 (converted)
  GI50: 51.3 nM
HCC38, cell line HCC38, censored GI50 values, read-out: GI50 (converted)
  GI50: 27.5 nM
HCC38, cell line HCC38, read-out: GI50 (converted)
  GI50: 27.5 nM
HCC70, cell line HCC70, censored GI50 values, read-out: GI50 (converted)
  GI50: 33100 nM
HCC70, cell line HCC70, read-out: GI50 (converted)
  GI50: 33100 nM
HCC1143, cell line HCC1143, censored GI50 values, read-out: GI50 (converted)
  GI50: 245 nM
HCC1143, cell line HCC1143, read-out: GI50 (converted)
  GI50: 245 nM
HCC1187, cell line HCC1187, censored GI50 values, read-out: GI50 (converted)
  GI50: 501 nM
HCC1187, cell line HCC1187, read-out: GI50 (converted)
  GI50: 501 nM
HCC1419, cell line HCC1419, censored GI50 values, read-out: GI50 (converted)
  GI50: 22.9 nM
HCC1419, cell line HCC1419, read-out: GI50 (converted)
  GI50: 22.9 nM
HCC1428, cell line HCC1428, censored GI50 values, read-out: GI50 (converted)
  GI50: 117 nM
HCC1428, cell line HCC1428, read-out: GI50 (converted)
  GI50: 117 nM
HCC1500, cell line HCC1500, censored GI50 values, read-out: GI50 (converted)
  GI50: 11.7 nM
HCC1500, cell line HCC1500, read-out: GI50 (converted)
  GI50: 11.7 nM
HCC1806, cell line HCC1806, censored GI50 values, read-out: GI50 (converted)
  GI50: 21.4 nM
HCC1806, cell line HCC1806, read-out: GI50 (converted)
  GI50: 21.4 nM
HCC1937, cell line HCC1937, censored GI50 values, read-out: GI50 (converted)
  GI50: 2630 nM
HCC1937, cell line HCC1937, read-out: GI50 (converted)
  GI50: 2630 nM
HCC1954, cell line HCC1954, censored GI50 values, read-out: GI50 (converted)
  GI50: 4470 nM
HCC1954, cell line HCC1954, read-out: GI50 (converted)
  GI50: 4470 nM
MDA-MB-134-VI, cell line MDAMB134VI, censored GI50 values, read-out: GI50 (converted)
  GI50: 52.5 nM
MDA-MB-175-VII, cell line MDAMB175VII, censored GI50 values, read-out: GI50 (converted)
  GI50: 427 nM
MDA-MB-415, cell line MDAMB415, censored GI50 values, read-out: GI50 (converted)
  GI50: 74.1 nM
MDA-MB-415, cell line MDAMB415, read-out: GI50 (converted)
  GI50: 74.1 nM
MDA-MB-436, cell line MDAMB436, censored GI50 values, read-out: GI50 (converted)
  GI50: 269 nM
MDA-MB-436, cell line MDAMB436, read-out: GI50 (converted)
  GI50: 269 nM
MDA-MB-453, cell line MDAMB453, censored GI50 values, read-out: GI50 (converted)
  GI50: 2190 nM
MDA-MB-453, cell line MDAMB453, read-out: GI50 (converted)
  GI50: 2190 nM
MDA-MB-468, cell line MDAMB468, censored GI50 values, read-out: GI50 (converted)
  GI50: 204 nM
MDA-MB-468, cell line MDAMB468, read-out: GI50 (converted)
  GI50: 204 nM
SK-BR-3, cell line SKBR3, censored GI50 values, read-out: GI50 (converted)
  GI50: 151 nM
SK-BR-3, cell line SKBR3, read-out: GI50 (converted)
  GI50: 151 nM
SUM52PE, cell line SUM52PE, censored GI50 values, read-out: GI50 (converted)
  GI50: 398 nM
SUM52PE, cell line SUM52PE, read-out: GI50 (converted)
  GI50: 398 nM
SUM149PT, cell line SUM149PT, censored GI50 values, read-out: GI50 (converted)
  GI50: 191 nM
SUM149PT, cell line SUM149PT, read-out: GI50 (converted)
  GI50: 191 nM
SUM1315MO2, cell line SUM1315MO2, censored GI50 values, read-out: GI50 (converted)
  GI50: 33100 nM
SUM-159-PT, cell line SUM159PT, censored GI50 values, read-out: GI50 (converted)
  GI50: 589 nM
SUM-159-PT, cell line SUM159PT, read-out: GI50 (converted)
  GI50: 589 nM
T47D, cell line T47D, censored GI50 values, read-out: GI50 (converted)
  GI50: 117 nM
T47D, cell line T47D, read-out: GI50 (converted)
  GI50: 117 nM
UACC-812, cell line UACC812, censored GI50 values, read-out: GI50 (converted)
  GI50: 1000 nM
UACC-812, cell line UACC812, read-out: GI50 (converted)
  GI50: 1000 nM
ZR-75-1, cell line ZR751, censored GI50 values, read-out: GI50 (converted)
  GI50: 33900 nM
ZR-75-1, cell line ZR751, read-out: GI50 (converted)
  GI50: 33900 nM
ZR-75B, cell line ZR75B, censored GI50 values, read-out: GI50 (converted)
  GI50: 145 nM
ZR-75B, cell line ZR75B, read-out: GI50 (converted)
  GI50: 145 nM
Cell line 600MPE, censored GI50 values, read-out: GI50 (converted)
  GI50: 372 nM
Cell line 600MPE, read-out: GI50 (converted)
  GI50: 372 nM
Cell line HCC2185, censored GI50 values, read-out: GI50 (converted)
  GI50: 372 nM
Cell line HCC2185, read-out: GI50 (converted)
  GI50: 372 nM
Cell line HCC3153, censored GI50 values, read-out: GI50 (converted)
  GI50: 229 nM
Cell line HCC3153, read-out: GI50 (converted)
  GI50: 229 nM
Cell line LY2, censored GI50 values, read-out: GI50 (converted)
  GI50: 158 nM
Cell line LY2, read-out: GI50 (converted)
  GI50: 158 nM
Cell line MDAMB134V, read-out: GI50 (converted)
  GI50: 52.5 nM
Cell line MDAMB175V, read-out: GI50 (converted)
  GI50: 427 nM
Cell line SUM1315MO, read-out: GI50 (converted)
  GI50: 33100 nM
